From ChEMBL document CHEMBL5053531, “Development of BromoTag: A "Bump-and-Hole"-PROTAC System to Induce Potent, Rapid, and Selective Degradation of Tagged Target Proteins” (J Med Chem, 2021)
Values belong to the molecule of their own block, whether it stands above or below them. Activity calls are given as the source filed them. The calls are words filed in the database; no cut-off is given here.

Key:
[1] = MRT (0 to infinity) in C57BL/6 mouse at 5 mg/kg, iv measured up to 8 hrs by LC-MS analysis; conditions: in vivo
[2] = Half life in C57BL/6 mouse at 5 mg/kg, sc measured up to 8 hrs by LC-MS analysis; format: ADME, organism-based; conditions: in vivo
[3] = Half life in C57BL/6 mouse at 5 mg/kg, iv measured up to 8 hrs by LC-MS analysis; format: ADME, organism-based; conditions: in vivo
[4] = AUC (0 to infinity) in C57BL/6 mouse at 5 mg/kg, sc measured up to 8 hrs by LC-MS analysis; format: ADME, organism-based; parameters: dose 5 mg/kg, time < 8 hrs, route sc; conditions: in vivo
[5] = Bioavailability in C57BL/6 mouse at 5 mg/kg, sc measured up to 8 hrs by LC-MS analysis; format: ADME, organism-based; conditions: in vivo
CWR22R = experiment: cells; conditions: Homo sapiens, 22Rv1, 48 h, read-out: pEC50 (converted)
Description: Antiproliferative activity against human BET-sensitive 22Rv1 cells assessed as reduction in cell viability measured after 48 hrs by Celltiter-Glo assay

[6] = Stability in mouse plasma measured up to 60 mins; format: ADME, cell-free; conditions: 1 h
[7] = biological target: T1, von Hippel-Lindau disease tumor suppressor/Bromodomain-containing protein 2 (Homo sapiens, UniProt P25440+P40337); experiment: Bump and hole PROTAC activity at BromoTag-Brd2/VHL-bound E3 ligase in HEK293 cells assessed as Brd2 degradation measured after 6 hrs by Western blot analysis; format: cell-based
Target sequence in this assay (P25440 whole entry): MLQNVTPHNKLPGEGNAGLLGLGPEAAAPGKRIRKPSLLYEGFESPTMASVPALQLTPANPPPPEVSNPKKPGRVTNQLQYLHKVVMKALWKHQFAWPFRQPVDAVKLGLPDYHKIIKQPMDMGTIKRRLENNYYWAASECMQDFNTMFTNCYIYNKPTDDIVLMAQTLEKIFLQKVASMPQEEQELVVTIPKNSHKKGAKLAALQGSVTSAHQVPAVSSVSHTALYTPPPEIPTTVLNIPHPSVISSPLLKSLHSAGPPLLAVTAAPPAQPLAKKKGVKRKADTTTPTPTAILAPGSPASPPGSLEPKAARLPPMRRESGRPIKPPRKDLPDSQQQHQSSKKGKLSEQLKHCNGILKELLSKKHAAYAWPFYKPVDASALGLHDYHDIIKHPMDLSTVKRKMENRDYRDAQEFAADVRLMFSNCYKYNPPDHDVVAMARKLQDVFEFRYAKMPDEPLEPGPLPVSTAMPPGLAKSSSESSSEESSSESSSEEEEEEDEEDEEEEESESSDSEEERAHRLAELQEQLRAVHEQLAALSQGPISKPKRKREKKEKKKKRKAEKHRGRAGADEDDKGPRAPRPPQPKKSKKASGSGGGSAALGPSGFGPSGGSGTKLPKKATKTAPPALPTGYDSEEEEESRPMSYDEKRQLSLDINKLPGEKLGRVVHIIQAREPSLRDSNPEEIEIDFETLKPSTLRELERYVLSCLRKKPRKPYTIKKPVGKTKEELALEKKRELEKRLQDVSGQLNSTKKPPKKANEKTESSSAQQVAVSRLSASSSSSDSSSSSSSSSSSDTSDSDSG
Target sequence in this assay (P40337 whole entry): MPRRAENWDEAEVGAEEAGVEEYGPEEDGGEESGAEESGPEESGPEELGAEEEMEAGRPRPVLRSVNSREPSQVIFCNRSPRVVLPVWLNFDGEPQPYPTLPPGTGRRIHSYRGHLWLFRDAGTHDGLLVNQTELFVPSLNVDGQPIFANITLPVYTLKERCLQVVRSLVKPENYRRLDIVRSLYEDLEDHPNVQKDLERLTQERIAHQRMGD

[8] = biological target: T1, von Hippel-Lindau disease tumor suppressor/Bromodomain-containing protein 2; experiment: Bump and hole PROTAC activity at BromoTag-Brd2/VHL-bound E3 ligase in HEK293 cells assessed as Brd2 degradation at 0.001 to 10 uM measured after 6 hrs by Western blot analysis; format: cell-based; conditions: dose 0.001-10 µM
Target sequence in this assay (P25440 whole entry, looked up): as the sequence (P25440 whole entry) above
Target sequence in this assay (P40337 whole entry, looked up): as the sequence (P40337 whole entry) above

[9] = biological target: T1, von Hippel-Lindau disease tumor suppressor/Bromodomain-containing protein 2; experiment: Bump and hole PROTAC activity at BromoTag-Brd2/VHL-bound E3 ligase in HEK293 cells assessed as Brd2 degradation at 1 uM measured after 6 hrs by Western blot analysis; format: cell-based
Target sequence in this assay (P25440 whole entry, looked up): as the sequence (P25440 whole entry) above
Target sequence in this assay (P40337 whole entry, looked up): as the sequence (P40337 whole entry) above

Structure (SMILES): CCC(C(=O)OCCOCCCOCC(=O)N[C@H](C(=O)N1C[C@H](O)C[C@H]1C(=O)N[C@@H](C)c1ccc(-c2scnc2C)cc1)C(C)(C)C)C1N=C(c2ccc(Cl)cc2)c2c(sc(C)c2C)-n2c(C)nnc21 (mixture of isomers)
pDC50 [7]: 7.8

Structure (SMILES): CCC(C(=O)NCCOCCCOCC(=O)N[C@H](C(=O)N1C[C@H](O)C[C@H]1C(=O)N[C@@H](C)c1ccc(-c2scnc2C)cc1)C(C)(C)C)C1N=C(c2ccc(Cl)cc2)c2c(sc(C)c2C)-n2c(C)nnc21 (mixture of isomers)
Brd2 degradation activity [8]: Active

Structure (SMILES): CC[C@@H](C(=O)NCCOCCOCCOCC(=O)N[C@H](C(=O)N1C[C@H](O)C[C@H]1C(=O)NCc1ccc(-c2scnc2C)cc1)C(C)(C)C)[C@@H]1N=C(c2ccc(Cl)cc2)c2cc(OC)ccc2-n2c(C)nnc21 (mixture of isomers)
Activity [9]: inactive

Structure (SMILES): CC[C@@H](C(=O)NCCOCCOCCOCC(=O)N[C@H](C(=O)N1C[C@H](O)C[C@H]1C(=O)NCc1ccc(-c2scnc2C)cc1)C(C)(C)C)[C@@H]1N=C(c2ccc(Cl)cc2)c2ccc(OC)cc2-n2c(C)nnc21 (mixture of isomers)
Activity [9]: inactive

Structure (SMILES): COc1ccc2c(c1)-n1c(C)nnc1[C@H]([C@@H](C)C(=O)NCCOCCOCCOCC(=O)N[C@H](C(=O)N1C[C@H](O)C[C@H]1C(=O)NCc1ccc(-c3scnc3C)cc1)C(C)(C)C)N=C2c1ccc(Cl)cc1 (mixture of isomers)
Activity [9]: inactive

Structure (SMILES): Cc1ncsc1-c1ccc([C@H](C)NC(=O)[C@@H]2C[C@@H](O)CN2C(=O)[C@@H](NC(=O)COCCCOCCNC(=O)C(C)C2N=C(c3ccc(Cl)cc3)c3c(sc(C)c3C)-n3c(C)nnc32)C(C)(C)C)cc1 (mixture of isomers)
Brd2 degradation activity [8]: Active

Structure (SMILES): Cc1ncsc1-c1ccc([C@H](C)NC(=O)[C@@H]2C[C@@H](O)CN2C(=O)[C@@H](NC(=O)COCCCOCCOC(=O)C(C)C2N=C(c3ccc(Cl)cc3)c3c(sc(C)c3C)-n3c(C)nnc32)C(C)(C)C)cc1 (mixture of isomers)
Brd2 degradation activity [8]: Active

Other lines, results leading:

MRT inf [1]: 20.4 min
half-life [2]: 177 min
half-life [3]: 62.4 min
AUC(0-inf) [4]: 3.76 µM·h
bioavailability [5]: 83%
Structure (SMILES): Cc1ncsc1-c1ccc(CNC(=O)[C@@H]2C[C@@H](O)CN2C(=O)[C@@H](NC(=O)COCCOCCOCCNC(=O)C[C@@H]2N=C(c3ccc(Cl)cc3)c3c(sc(C)c3C)-n3c(C)nnc32)C(C)(C)C)cc1

EC50 (CWR22R): 5.01 µM
Structure (SMILES): CC[C@@H](C(=O)OCCOCCOCCOCC(=O)N[C@H](C(=O)N1C[C@@H](O)C[C@H]1C(=O)NCc1ccc(-c2scnc2C)cc1)C(C)(C)C)[C@@H]1N=C(c2ccc(Cl)cc2)c2c(sc(C)c2C)-n2c(C)nnc21

Stability [6]: Stable
bioavailability [5]: 140%
Structure (SMILES): CC[C@@H](C(=O)OCCOCCOCCOCC(=O)N[C@H](C(=O)N1C[C@H](O)C[C@H]1C(=O)NCc1ccc(-c2scnc2C)cc1)C(C)(C)C)[C@@H]1N=C(c2ccc(Cl)cc2)c2c(sc(C)c2C)-n2c(C)nnc21

Brd2 degradation activity [8]: Active
Structure (SMILES): Cc1ncsc1-c1ccc(CNC(=O)[C@@H]2C[C@@H](O)CN2C(=O)[C@@H](NC(=O)COCCOCCOCCNC(=O)C(C)C2N=C(c3ccc(Cl)cc3)c3c(sc(C)c3C)-n3c(C)nnc32)C(C)(C)C)cc1 (mixture of isomers)

Brd2 degradation activity [8]: Active
Structure (SMILES): Cc1ncsc1-c1ccc(CNC(=O)[C@@H]2C[C@@H](O)CN2C(=O)[C@@H](NC(=O)COCCOCCOCCOC(=O)C(C)C2N=C(c3ccc(Cl)cc3)c3c(sc(C)c3C)-n3c(C)nnc32)C(C)(C)C)cc1 (mixture of isomers)
